In DBAASP one finds MIC data, which are given here for eleven compounds.

What all share (assay): ≥ marks a high value that may be exact or a test limit, other limits are often not marked, values filed in µg/mL are converted to µM
In assay [1] the test system is Streptococcus mutans.
The test system of assay [2] is Staphylococcus aureus ATCC 25923.
Assay [3] has as its system Pseudomonas aeruginosa ATCC 15692.
The subject of assay [4] is Escherichia coli ATCC 25922.
In assay [5] the test system is Micrococcus luteus.
The test system of assay [6] is Saccharomyces cerevisiae.
Assay [7] relates to Staphylococcus aureus ATCC 29213.
The test system of assay [8] is Pseudomonas aeruginosa ATCC 27853.
For assay [9], the system named is Staphylococcus aureus ATCC 33591.
Assay [10] relates to Klebsiella pneumoniae ATCC 700603.
Assay [11] has as its system Staphylococcus aureus ATCC 700699.
Assay [12] concerns Staphylococcus aureus.
Assay [13] relates to Escherichia coli K-12.
The test system of assay [14] is Staphylococcus aureus ATCC 43300.
In assay [15] the test system is Escherichia coli ML-35.
Assay [16] concerns Bacillus subtilis ATCC 23857.
The subject of assay [17] is Staphylococcus epidermidis ATCC 12228.
Assay [18] concerns Salmonella typhimurium.
In assay [19] the test system is Klebsiella pneumoniae.
Assay [20] has as its system Pseudomonas aeruginosa.
For assay [21], the system named is Micrococcus luteus ATCC 9341.
For assay [22], the system named is Escherichia coli DH5alpha.
Assay [23] concerns Escherichia coli ATCC 8739.
Assay [24] concerns Staphylococcus aureus ATCC 6538.

In brackets after ≈: the same amount, converted by molar mass.

Regarding `CC(C)C[C@H](NC(=O)[C@H](CCCN=C(N)N)NC(=O)[C@H](CCCCN)NC(=O)[C@H](C)N)C(=O)N[C@@H](CC(C)C)C(=O)N[C@@H](CCCCN)C(=O)N[C@H](C(=O)N[C@@H](CC(C)C)C(=O)N[C@@H](CCCCN)C(=O)N[C@@H](CCCN=C(N)N)C(=O)N[C@@H](Cc1ccccc1)C(N)=O)C(C)C` [AKRLLKVLKRF], in [1], the minimal inhibitory concentration (MIC) – broadly, the lowest concentration found to suppress growth – amounted to 16.5 µM (≈ 22.6 µg/mL).
Take `CC[C@H](C)[C@H](NC(=O)[C@H](C)NC(=O)[C@H](CC(N)=O)NC(=O)[C@@H](NC(=O)CNC(=O)CNC(=O)[C@H](CCCCN)NC(=O)[C@H](C)NC(=O)[C@H](Cc1ccccc1)NC(=O)[C@H](CCCCN)NC(=O)[C@H](CCCCN)NC(=O)[C@H](C)NC(=O)[C@H](Cc1ccccc1)NC(=O)[C@H](CC(N)=O)NC(=O)[C@H](C)NC(=O)[C@@H](NC(=O)[C@H](CCCCN)NC(=O)[C@H](CO)NC(=O)[C@H](CCSC)NC(=O)[C@H](Cc1ccccc1)NC(=O)CN)C(C)C)C(C)C)C(=O)N[C@@H](CCSC)C(=O)N[C@@H](CC(N)=O)C(=O)N[C@@H](CCC(N)=O)C(=O)N[C@@H](CCCCN)C(=O)O` [GFMSKVANFAKKFAKGGVNAIMNQK]: the MIC in [2] came out at 128 µM (≈ 344 µg/mL); in [3] it was 4 µM (≈ 10.7 µg/mL); in [4] it was 1 µM (≈ 2.69 µg/mL); in [5], 0.5 µM (≈ 1.34 µg/mL); in assay [6], 8 µM (≈ 21.5 µg/mL).
For `CC(C)C[C@H](NC(=O)CNC(=O)[C@H](C)NC(=O)[C@@H](NC(=O)[C@H](CC(N)=O)NC(=O)[C@H](CO)NC(=O)[C@H](CC(C)C)NC(=O)[C@H](CC(C)C)NC(=O)CN)C(C)C)C(=O)N[C@@H](CC(C)C)C(=O)N[C@@H](CCCCN)C(=O)N[C@@H](CCC(N)=O)C(=O)N[C@@H](Cc1ccccc1)C(=O)N[C@@H](C)C(=O)N[C@@H](CCCCN)C(=O)NCC(=O)NCC(=O)N[C@H](C(=O)N[C@@H](CC(N)=O)C(=O)N[C@@H](C)C(=O)N[C@H](C(=O)N[C@@H](CC(C)C)C(=O)N[C@@H](CC(N)=O)C(=O)N1CCC[C@H]1C(=O)N[C@@H](CCCCN)C(=O)O)C(C)C)C(C)C` [GLLSNVAGLLKQFAKGGVNAVLNPK], in that order: 128 µM (≈ 321 µg/mL), at least 32 µM, 8 µM (≈ 20.1 µg/mL), 1 µM (≈ 2.51 µg/mL) and at least 32 µM.
As for `CC[C@H](C)[C@H](NC(=O)[C@H](CC(=O)O)NC(=O)[C@H](CCCCN)NC(=O)[C@H](CC(C)C)NC(=O)[C@H](C)NC(=O)CNC(=O)[C@H](CCCCN)NC(=O)[C@H](CC(C)C)NC(=O)[C@@H](NC(=O)[C@H](CC(=O)O)NC(=O)[C@@H](NC(=O)[C@@H](NC(=O)CN)C(C)C)C(C)C)[C@@H](C)CC)C(=O)N[C@@H](C)C(=O)NCC(=O)N[C@@H](Cc1cnc[nH]1)C(=O)N[C@@H](CC(C)C)C(=O)N[C@@H](C)C(=O)N[C@@H](CO)C(=O)N[C@@H](CCCCN)C(=O)N[C@H](C(=O)N[C@@H](CCSC)C(=O)N[C@@H](CC(N)=O)C(=O)N[C@@H](CCCCN)C(=O)N[C@@H](CC(C)C)C(N)=O)C(C)C` [GVVDILKGALKDIAGHLASKVMNKL], the MIC was 100 µM (≈ 259 µg/mL) in [7]; 50 µM (≈ 130 µg/mL) in assay [8]; 25 µM (≈ 64.8 µg/mL) in [9]; 50 µM (≈ 130 µg/mL) in [10]; at least 50 µM in assay [11]; 12.5 µM (≈ 32.4 µg/mL) in assay [4].
For `CC[C@H](C)[C@H](N)C(=O)NCC(=O)N[C@@H](CCCCN)C(=O)N[C@@H](CCC(=O)O)C(=O)N[C@@H](Cc1ccccc1)C(=O)N[C@@H](CCCCN)C(=O)N[C@@H](CCCNC(=N)N)C(=O)N[C@H](C(=O)N[C@H](C(=O)N[C@@H](CCC(N)=O)C(=O)N[C@@H](CCCNC(=N)N)C(=O)N[C@H](C(=O)N[C@@H](CCCCN)C(=O)N[C@@H](CC(=O)O)C(=O)N[C@@H](Cc1ccccc1)C(=O)N[C@@H](CC(C)C)C(=O)N[C@@H](CCCNC(=N)N)C(=O)N[C@@H](CC(N)=O)C(=O)N[C@@H](CC(C)C)C(=O)N[C@H](C(=O)N1CCC[C@H]1C(=O)N[C@@H](CCCNC(=N)N)C(=O)N[C@H](C(=O)N[C@@H](CCC(=O)O)C(=O)N[C@H](C=O)CO)[C@@H](C)O)C(C)C)[C@@H](C)CC)C(C)C)[C@@H](C)CC` [IGKEFKRIVQRIKDFLRNLVPRTES], the MIC in assay [12] was 168 µM (≈ 509 µg/mL); in [2] it was 168 µM (≈ 509 µg/mL); in assay [13], at least 80 µM; in assay [14] it was 168 µM (≈ 509 µg/mL); in assay [11] it was at least 336 µM.
Regarding `CC[C@H](C)[C@H](N)C(=O)N[C@@H](CC(C)C)C(=O)NCC(=O)N[C@H](C(=O)N[C@H](C(=O)N1CCC[C@H]1C(=O)NCC(=O)N[C@@H](CC(C)C)C(=O)N[C@@H](CC(C)C)C(=O)N[C@@H](CCCCN)C(=O)NCC(=O)N[C@@H](CC(C)C)C(N)=O)[C@@H](C)CC)[C@@H](C)O` [ILGTIPGLLKGL], the MIC in [15] was at least 256 µM; in assay [7], over 256 µM; in assay [16], at least 256 µM; in [17] it was over 256 µM; in [4], over 256 µM.
In the case of `CC[C@H](C)[C@H](N)C(=O)N[C@@H](CC(C)C)C(=O)N1CCC[C@H]1C(=O)N[C@@H](Cc1c[nH]c2ccccc12)C(=O)N[C@@H](CCCCN)C(=O)N[C@@H](Cc1c[nH]c2ccccc12)C(=O)N1CCC[C@H]1C(=O)N[C@@H](Cc1c[nH]c2ccccc12)C(=O)N[C@@H](Cc1c[nH]c2ccccc12)C(=O)N[C@@H](C)C(=O)N[C@@H](Cc1c[nH]c2ccccc12)C(=O)N[C@@H](CCCN=C(N)N)C(=O)N[C@@H](CCCN=C(N)N)C(N)=O` [ILPWKWPWWAWRR], the MIC is at least 50 µM in [18]; 25 µM (≈ 47 µg/mL) in [19]; 50 µM (≈ 94 µg/mL) in assay [20]; 1.6 µM (≈ 3.01 µg/mL) in assay [21]; 15 µM (≈ 28.2 µg/mL) in [22].
Regarding `CC[C@H](C)[C@H](NC(=O)[C@H](CCCCN)NC(=O)[C@@H](N)CCCCN)C(=O)N[C@@H](CC(N)=O)C(=O)N[C@@H](CC(N)=O)C(=O)N[C@H](C(=O)N[C@H](C(=O)N[C@@H](CC(C)C)C(=O)N[C@@H](CO)C(=O)NCC(=O)N[C@@H](CC(C)C)C(=O)N[C@@H](CC(=O)O)C(=O)N[C@@H](CO)C(=O)N[C@H](C(=O)N[C@@H](C)C(=O)N[C@@H](CO)C(=O)N[C@@H](Cc1ccccc1)C(=O)N[C@@H](CO)C(=O)O)C(C)C)[C@@H](C)CC)[C@@H](C)O` [KKINNTILSGLDSVASFS], the results for the MIC in [23] and in [2] were at least 135 µM and over 135 µM, respectively.
Regarding `CC(C)[C@H](NC(=O)[C@H](CCCCN)NC(=O)[C@H](Cc1ccccc1)NC(=O)[C@@H](NC(=O)[C@@H](NC(=O)[C@@H](N)CCCCN)C(C)C)C(C)C)C(=O)N[C@@H](CCCCN)C(=O)N[C@@H](Cc1ccccc1)C(=O)N[C@@H](CCCCN)C(N)=O` [KVVFKVKFK], the MIC in assay [24] and in [21] was 5.57 µM (≈ 6.24 µg/mL) throughout.
Turning to `CC[C@H](C)[C@H](NC(=O)[C@H](CCCCN)NC(=O)[C@H](Cc1ccc(O)cc1)NC(=O)[C@H](Cc1ccccc1)NC(=O)[C@H](CCC(N)=O)NC(=O)[C@H](CO)NC(=O)[C@H](CCC(=O)O)NC(=O)[C@H](CCCN=C(N)N)NC(=O)[C@H](CC(N)=O)NC(=O)[C@@H]1CCCN1)C(=O)N[C@@H](CC(C)C)C(=O)N[C@@H](CCCN=C(N)N)C(=O)N[C@@H](CCCCN)C(=O)N[C@H](C(=O)N[C@@H](CC(C)C)C(=O)N[C@@H](CO)C(=O)N[C@@H](CCCCN)C(=O)N[C@H](C(=O)N[C@H](C(=O)O)C(C)C)[C@@H](C)CC)[C@@H](C)CC` [PNRESQFYKILRKILSKIV], the MIC in assay [23] amounted to 6.86 µM (≈ 16 µg/mL); in assay [2], 27.4 µM (≈ 64 µg/mL).
`CC[C@H](C)[C@H](NC(=O)[C@H](CCCCN)NC(=O)[C@H](CCCN=C(N)N)NC(=O)CNC(=O)[C@H](CC(C)C)NC(=O)[C@H](CCCN=C(N)N)NC(=O)[C@H](CCCN=C(N)N)NC(=O)[C@H](CC(C)C)NC(=O)CNC(=O)[C@H](CCCN=C(N)N)NC(C)=O)C(=O)N[C@@H](CCCCN)C(=O)N[C@@H](CCCCN)C(=O)NCC(=O)N[C@@H](CC(C)C)C(=O)N[C@@H](CCCCN)C(=O)N[C@@H](CCCCN)C(=O)N[C@@H](Cc1ccc(O)cc1)C(=O)NCC(N)=O` [RGLRRLGRKIKKGLKKYG]: the MIC came out at 17.7 µM (≈ 38.3 µg/mL) in [23], 70.7 µM (≈ 153 µg/mL) in assay [19], 17.7 µM (≈ 38.3 µg/mL) in [8] and 35.4 µM (≈ 76.7 µg/mL) in assay [4].
